Experimental findings from PMC8550792, “Evolution of kinase polypharmacology across HSP90 drug discovery” (Cell Chemical Biology, 2021) are described below.

What all share (test): biochemical
Holding throughout (type): biochemical

Assay [1] concerns the target T1, 382 unique human kinases (Homo sapiens, UniProt P36507).
T1 construct: purchased Reaction Biology (HotSpot contract assay)
To be noted: MEK2, 10 uM; for remaining activity at 10 µM: read-out: % Enzyme Activity (relative to DMSO controls).

Assay [2] deals with T2, 382 unique human kinases (Homo sapiens, UniProt P00533, D761Y).
T2 construct: purchased Reaction Biology (HotSpot contract assay)
To be noted: kinase EGFR (D761Y), compound 10 uM; for remaining activity at 10 µM: read-out: % Enzyme Activity (relative to DMSO controls).

The target of assay [3] is T3, 382 unique human kinases (Homo sapiens, UniProt P21802, K659N).
T3 construct: purchased Reaction Biology (HotSpot contract assay)
To be noted: FGFR2 (K659N), 10 uM; for remaining activity at 10 µM: read-out: % Enzyme Activity (relative to DMSO controls).

Assay [4] concerns the target T4, 382 unique human kinases (Homo sapiens, UniProt Q9UF33).
T4 construct: purchased Reaction Biology (HotSpot contract assay)
T4 sequence (Q9UF33 23-1036): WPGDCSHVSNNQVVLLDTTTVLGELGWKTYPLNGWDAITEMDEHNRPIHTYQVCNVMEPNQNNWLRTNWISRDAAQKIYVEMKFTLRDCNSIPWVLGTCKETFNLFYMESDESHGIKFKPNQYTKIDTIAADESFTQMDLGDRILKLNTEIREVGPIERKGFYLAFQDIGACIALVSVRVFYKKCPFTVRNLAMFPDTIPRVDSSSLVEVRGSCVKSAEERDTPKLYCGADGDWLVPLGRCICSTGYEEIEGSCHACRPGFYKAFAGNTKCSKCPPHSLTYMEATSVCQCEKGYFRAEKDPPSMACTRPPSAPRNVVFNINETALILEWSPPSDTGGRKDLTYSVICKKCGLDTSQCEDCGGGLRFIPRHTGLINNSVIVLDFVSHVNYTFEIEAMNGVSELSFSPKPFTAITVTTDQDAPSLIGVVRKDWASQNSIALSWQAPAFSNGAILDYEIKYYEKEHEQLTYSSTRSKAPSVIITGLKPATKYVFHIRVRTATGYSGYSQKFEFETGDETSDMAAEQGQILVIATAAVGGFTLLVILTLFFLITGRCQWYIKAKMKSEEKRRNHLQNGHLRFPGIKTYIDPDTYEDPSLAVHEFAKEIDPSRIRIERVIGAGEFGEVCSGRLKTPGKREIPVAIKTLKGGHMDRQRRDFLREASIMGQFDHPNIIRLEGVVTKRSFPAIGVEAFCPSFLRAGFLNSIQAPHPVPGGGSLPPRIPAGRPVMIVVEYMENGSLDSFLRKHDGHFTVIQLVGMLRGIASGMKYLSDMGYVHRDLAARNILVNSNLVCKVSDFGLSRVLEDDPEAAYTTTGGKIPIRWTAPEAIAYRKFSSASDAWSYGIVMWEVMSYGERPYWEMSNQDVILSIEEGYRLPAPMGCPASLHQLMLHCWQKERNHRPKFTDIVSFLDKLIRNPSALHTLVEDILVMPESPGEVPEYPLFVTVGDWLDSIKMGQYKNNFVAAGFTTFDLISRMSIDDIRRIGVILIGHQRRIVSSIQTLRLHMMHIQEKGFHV
As to conditions: kinase EPHA6, compound 10 uM; for remaining activity at 10 µM: read-out: % Enzyme Activity (relative to DMSO controls).

In assay [5] the target is T5, 382 unique human kinases (Homo sapiens, UniProt Q8TDX7).
T5 construct: purchased Reaction Biology (HotSpot contract assay)
To be noted: NEK7, compound at 10 uM, duplicate values; for remaining activity at 10 µM: read-out: % Enzyme Activity (relative to DMSO controls).

Assay [6] has as its target T6, 382 unique human kinases (Homo sapiens, UniProt P28482).
T6 construct: purchased Reaction Biology (HotSpot contract assay)
To be noted: ERK2/MAPK1, 10 uM; for remaining activity at 10 µM: read-out: % Enzyme Activity (relative to DMSO controls).

Assay [7] deals with T7, 382 unique human kinases (Homo sapiens, UniProt P53671).
T7 construct: purchased Reaction Biology (HotSpot contract assay)
As to conditions: LIMK2, [ATP] 5 µM, compound 10 uM; for remaining activity at 10 µM: read-out: % Enzyme Activity (relative to DMSO controls).

The target of assay [8] is T8, 382 unique human kinases (Homo sapiens, UniProt P10721, Y823D).
T8 construct: purchased Reaction Biology (HotSpot contract assay)
To be noted: c-Kit (Y823D), [ATP] 100 µM, compound 10 uM; for remaining activity at 10 µM: read-out: % Enzyme Activity (relative to DMSO controls).

In assay [9] the target is T9, 382 unique human kinases (Homo sapiens, UniProt P00533, G719D).
T9 construct: purchased Reaction Biology (HotSpot contract assay)
As to conditions: EGFR (G719D), 10 uM; for remaining activity at 10 µM: read-out: % Enzyme Activity (relative to DMSO controls).

Assay [10] concerns the target T10, 382 unique human kinases (Homo sapiens, UniProt P29323).
T10 construct: purchased Reaction Biology (HotSpot contract assay)
T10 sequence (P29323 19-1055): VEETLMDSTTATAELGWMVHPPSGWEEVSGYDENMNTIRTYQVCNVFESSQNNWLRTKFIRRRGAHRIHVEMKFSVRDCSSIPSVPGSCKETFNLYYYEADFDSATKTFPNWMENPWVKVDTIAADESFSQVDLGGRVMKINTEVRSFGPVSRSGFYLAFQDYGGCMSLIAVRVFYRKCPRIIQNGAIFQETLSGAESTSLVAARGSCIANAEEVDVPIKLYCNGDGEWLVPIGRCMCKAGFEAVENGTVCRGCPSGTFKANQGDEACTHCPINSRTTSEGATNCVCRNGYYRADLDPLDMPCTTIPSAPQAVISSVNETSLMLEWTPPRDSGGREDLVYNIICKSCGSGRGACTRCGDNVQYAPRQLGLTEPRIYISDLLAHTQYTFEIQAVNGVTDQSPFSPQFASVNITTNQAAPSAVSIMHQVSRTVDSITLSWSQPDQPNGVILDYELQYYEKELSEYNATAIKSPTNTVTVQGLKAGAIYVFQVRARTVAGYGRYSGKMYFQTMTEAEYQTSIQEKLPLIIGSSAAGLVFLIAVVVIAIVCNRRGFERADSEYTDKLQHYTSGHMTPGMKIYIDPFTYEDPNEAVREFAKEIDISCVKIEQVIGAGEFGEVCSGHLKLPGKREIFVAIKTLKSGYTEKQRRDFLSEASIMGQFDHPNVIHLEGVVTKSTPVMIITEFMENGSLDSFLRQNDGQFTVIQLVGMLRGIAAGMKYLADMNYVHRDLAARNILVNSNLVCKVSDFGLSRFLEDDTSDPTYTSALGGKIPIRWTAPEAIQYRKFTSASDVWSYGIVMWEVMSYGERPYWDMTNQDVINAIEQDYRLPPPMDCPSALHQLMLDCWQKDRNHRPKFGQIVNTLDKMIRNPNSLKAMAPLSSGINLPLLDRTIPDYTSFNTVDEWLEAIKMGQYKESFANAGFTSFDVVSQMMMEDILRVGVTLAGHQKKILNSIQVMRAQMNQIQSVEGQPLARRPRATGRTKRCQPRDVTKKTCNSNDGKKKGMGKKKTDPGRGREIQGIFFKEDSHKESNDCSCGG
As to conditions: EPHB2, [ATP] 30 µM, compound 10 uM; for remaining activity at 10 µM: read-out: % Enzyme Activity (relative to DMSO controls).

T1 sequence (P36507 whole entry): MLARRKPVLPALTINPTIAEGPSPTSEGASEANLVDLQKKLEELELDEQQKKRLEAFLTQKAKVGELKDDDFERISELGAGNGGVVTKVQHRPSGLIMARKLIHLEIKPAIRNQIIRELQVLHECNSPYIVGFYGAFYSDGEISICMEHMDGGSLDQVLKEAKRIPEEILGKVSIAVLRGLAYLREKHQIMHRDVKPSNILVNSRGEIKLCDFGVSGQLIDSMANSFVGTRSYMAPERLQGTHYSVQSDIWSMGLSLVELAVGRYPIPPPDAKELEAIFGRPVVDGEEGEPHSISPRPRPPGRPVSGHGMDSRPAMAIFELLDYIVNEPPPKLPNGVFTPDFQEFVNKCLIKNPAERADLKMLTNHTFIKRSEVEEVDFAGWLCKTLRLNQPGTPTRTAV
T7 sequence (P53671 whole entry): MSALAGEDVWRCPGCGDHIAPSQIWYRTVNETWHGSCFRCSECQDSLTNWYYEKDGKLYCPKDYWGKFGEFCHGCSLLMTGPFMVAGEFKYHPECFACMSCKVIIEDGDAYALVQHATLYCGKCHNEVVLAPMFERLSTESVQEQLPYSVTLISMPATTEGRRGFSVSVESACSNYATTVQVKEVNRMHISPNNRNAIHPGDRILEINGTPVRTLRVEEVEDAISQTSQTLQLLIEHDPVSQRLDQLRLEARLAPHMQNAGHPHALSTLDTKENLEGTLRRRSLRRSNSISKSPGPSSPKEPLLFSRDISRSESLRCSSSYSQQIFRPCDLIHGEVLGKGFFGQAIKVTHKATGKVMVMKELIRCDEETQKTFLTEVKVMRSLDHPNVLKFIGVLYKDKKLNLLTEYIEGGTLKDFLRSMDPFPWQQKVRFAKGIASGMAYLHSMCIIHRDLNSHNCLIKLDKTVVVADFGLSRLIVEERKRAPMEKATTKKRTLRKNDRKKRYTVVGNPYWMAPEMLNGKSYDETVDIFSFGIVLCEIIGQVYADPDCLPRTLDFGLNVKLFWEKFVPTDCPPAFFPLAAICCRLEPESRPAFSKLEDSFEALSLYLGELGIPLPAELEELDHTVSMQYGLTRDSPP
T3 sequence (P21802 22-821 K659N): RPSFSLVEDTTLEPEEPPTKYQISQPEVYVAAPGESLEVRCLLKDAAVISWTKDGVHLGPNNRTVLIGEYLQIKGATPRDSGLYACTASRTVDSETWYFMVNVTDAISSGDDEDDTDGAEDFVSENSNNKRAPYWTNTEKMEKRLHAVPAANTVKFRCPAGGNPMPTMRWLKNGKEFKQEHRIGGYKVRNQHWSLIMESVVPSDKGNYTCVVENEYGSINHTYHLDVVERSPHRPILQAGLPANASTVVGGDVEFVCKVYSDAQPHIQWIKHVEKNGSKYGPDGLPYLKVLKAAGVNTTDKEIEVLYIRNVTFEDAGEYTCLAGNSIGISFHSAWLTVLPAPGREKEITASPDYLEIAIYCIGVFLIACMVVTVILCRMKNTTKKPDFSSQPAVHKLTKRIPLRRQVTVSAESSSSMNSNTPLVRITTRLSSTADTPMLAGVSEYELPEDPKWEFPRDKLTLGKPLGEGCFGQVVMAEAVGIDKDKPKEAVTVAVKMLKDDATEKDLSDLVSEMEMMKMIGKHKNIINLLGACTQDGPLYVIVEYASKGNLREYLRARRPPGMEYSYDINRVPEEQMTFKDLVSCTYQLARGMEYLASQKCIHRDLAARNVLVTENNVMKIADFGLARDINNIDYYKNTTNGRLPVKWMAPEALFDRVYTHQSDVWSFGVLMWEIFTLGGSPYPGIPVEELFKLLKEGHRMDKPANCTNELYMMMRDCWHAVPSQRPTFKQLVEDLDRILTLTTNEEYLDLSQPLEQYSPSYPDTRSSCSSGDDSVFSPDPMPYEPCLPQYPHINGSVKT
T8 sequence (P10721 26-976 Y823D): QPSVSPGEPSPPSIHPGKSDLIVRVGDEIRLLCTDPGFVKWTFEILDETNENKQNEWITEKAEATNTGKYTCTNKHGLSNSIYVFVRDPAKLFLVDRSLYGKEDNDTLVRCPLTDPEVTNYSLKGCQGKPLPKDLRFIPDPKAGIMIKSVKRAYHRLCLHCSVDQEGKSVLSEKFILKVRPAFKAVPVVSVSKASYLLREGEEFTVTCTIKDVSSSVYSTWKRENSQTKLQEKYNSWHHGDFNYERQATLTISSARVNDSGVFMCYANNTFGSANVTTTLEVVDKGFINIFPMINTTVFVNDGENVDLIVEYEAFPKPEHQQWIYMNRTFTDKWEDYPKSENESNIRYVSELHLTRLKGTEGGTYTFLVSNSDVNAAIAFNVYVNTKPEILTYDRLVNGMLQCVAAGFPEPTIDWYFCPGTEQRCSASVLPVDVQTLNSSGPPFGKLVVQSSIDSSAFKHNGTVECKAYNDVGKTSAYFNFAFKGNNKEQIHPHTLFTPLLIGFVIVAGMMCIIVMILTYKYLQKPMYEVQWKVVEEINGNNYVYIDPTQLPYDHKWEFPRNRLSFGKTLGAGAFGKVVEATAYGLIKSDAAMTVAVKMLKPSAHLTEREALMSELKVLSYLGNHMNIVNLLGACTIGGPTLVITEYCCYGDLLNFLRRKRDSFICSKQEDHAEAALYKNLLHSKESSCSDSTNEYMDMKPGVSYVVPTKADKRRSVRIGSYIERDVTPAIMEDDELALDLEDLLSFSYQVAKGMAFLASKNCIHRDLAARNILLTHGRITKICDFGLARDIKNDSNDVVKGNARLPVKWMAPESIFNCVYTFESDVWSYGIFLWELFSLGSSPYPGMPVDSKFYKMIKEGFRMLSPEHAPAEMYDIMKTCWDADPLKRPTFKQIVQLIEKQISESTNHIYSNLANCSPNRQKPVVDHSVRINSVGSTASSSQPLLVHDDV
T5 sequence (Q8TDX7 whole entry): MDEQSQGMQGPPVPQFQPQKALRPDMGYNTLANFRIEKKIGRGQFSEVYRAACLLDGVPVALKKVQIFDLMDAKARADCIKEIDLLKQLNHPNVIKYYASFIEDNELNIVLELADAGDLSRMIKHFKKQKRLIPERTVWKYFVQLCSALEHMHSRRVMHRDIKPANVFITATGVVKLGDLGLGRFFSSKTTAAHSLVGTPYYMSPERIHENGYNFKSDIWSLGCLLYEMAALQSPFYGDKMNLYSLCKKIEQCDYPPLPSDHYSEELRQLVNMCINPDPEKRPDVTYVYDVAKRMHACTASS
T6 sequence (P28482 whole entry): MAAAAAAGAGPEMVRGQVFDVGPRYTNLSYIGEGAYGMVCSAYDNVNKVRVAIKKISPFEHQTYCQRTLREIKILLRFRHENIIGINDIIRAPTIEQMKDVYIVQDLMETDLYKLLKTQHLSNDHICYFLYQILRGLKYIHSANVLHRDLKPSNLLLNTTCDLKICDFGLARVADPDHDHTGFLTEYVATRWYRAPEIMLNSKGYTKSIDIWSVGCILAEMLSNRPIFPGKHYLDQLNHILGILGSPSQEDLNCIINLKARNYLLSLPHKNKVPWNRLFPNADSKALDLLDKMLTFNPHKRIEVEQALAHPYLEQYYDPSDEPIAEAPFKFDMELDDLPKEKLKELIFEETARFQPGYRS

In the case of `CC(C)c1cc(-c2n[nH]c(=O)n2-c2ccc3c(ccn3C)c2)c(O)cc1O` [Ganetespib (STA9090)], the remaining activity at 10 µM was 61.1% at 382 unique human kinases [1]; 90% at 382 unique human kinases [2]; 70.6% on 382 unique human kinases [3]; 91% on 382 unique human kinases [4]; 113% at 382 unique human kinases [5].

With `CC(C)c1cc(-c2n[nH]c(=O)n2-c2ccc3c(ccn3C)c2)c(O)cc1O` [Ganetespib], the remaining activity at 10 µM was found to be 106% at 382 unique human kinases [6]; 46.7% at 382 unique human kinases [7]; 49.7% at 382 unique human kinases [8]; 104% on 382 unique human kinases [9]; 45.3% on 382 unique human kinases [10].

As for `CCNC(=O)c1noc(-c2cc(C(C)C)c(O)cc2O)c1-c1ccc(CN2CCOCC2)cc1` [Luminespib (AUY-922)], the “% Enzyme Activity (relative to DMSO controls)” value is reported as 98.43% at 382 unique human kinases [1]; 97.70% at 382 unique human kinases [2]; 101.12% at 382 unique human kinases [3]; 91.89% on 382 unique human kinases [4]; 116.20% at 382 unique human kinases [5]. Further, the remaining activity at 10 µM was 99.5% at 382 unique human kinases [1]; 98.1% on 382 unique human kinases [2]; 102% on 382 unique human kinases [3]; 92% on 382 unique human kinases [4]; 116% at 382 unique human kinases [5].

Take `CCNC(=O)c1noc(-c2cc(C(C)C)c(O)cc2O)c1-c1ccc(CN2CCOCC2)cc1` [Luminespib]: the “% Enzyme Activity (relative to DMSO controls)” value on 382 unique human kinases [6] was 93.52%; on 382 unique human kinases [7], 100.64%; on 382 unique human kinases [8], 59.05%; at 382 unique human kinases [9], 97.19%; on 382 unique human kinases [10], 61.81%. The remaining activity at 10 µM came to 94.6% on 382 unique human kinases [6]; 101% at 382 unique human kinases [7]; 60.2% on 382 unique human kinases [8]; 99% on 382 unique human kinases [9]; 63.2% on 382 unique human kinases [10].
